Key:
[1] = as reported in WO 2006/034797, page 2, lines 5-7; cited from earlier work
[2] = stability of crystalline form in water suspension (no hydrolysis of the PTSA moiety); format: physicochemical; conditions: about 20° C., stable = no hydrolysis of the PTSA moiety in water for at least about 48 hours
Description: Sorafenib hemi-tosylate Form A is a stable crystalline form in water suspensions at a temperature of about 20° C., making it ideal for use in the preparation of a dosage form, particularly when the process of wet granulation is used.

Row | Molecule | stability of polymorphic form [1] | stability of crystalline form in water suspensions [2]
1 | CNC(=O)c1cc(Oc2ccc(NC(=O)Nc3ccc(Cl)c(C(F)(F)F)c3)cc2)ccn1.Cc1ccc(S(=O)(=O)O)cc1 [form II, 4-(4-{3-[4-chloro-3-(trifluoromethyl)phenyl]ureido}phenoxy)-N2-methylpyridine-2-carboxamide 4-methylbenzenesulfonate] | meta stable | –
2 | Sorafenib hemi-tosylate [Sorafenib hemi-tosylate Form A] | – | stable

From patent US8217061B2, “Polymorphs of sorafenib tosylate and sorafenib hemi-tosylate, and processes for preparation thereof” (Sicor Inc., priority 2008, dated 2012)
